Four molecules from US20110269811A1, “INHIBITORS OF SEMICARBAZIDE-SENSITIVE AMINE OXIDASE (SSAO) AND VAP-1 MEDIATED ADHESION USEFUL FOR TREATMENT AND PREVENTION OF DISEASES” (priority 2006, published 2011) can be followed below.

pIC50: −log10 of the molar value.

The term pIC50 denotes the negative decadic logarithm of the IC50, by convention in mol/L. Lower therefore signals a large IC50.

In one assay the target is T1, Rat SSAO (Rattus norvegicus, UniProt O08590).
T1 construct: rat lung or human umbilical cord homogenates were prepared by chopping the freshly removed tissue; from tissue; host or cells: rat lung homogenate (1000 g supernatant)
T1 sequence (O08590 1-763): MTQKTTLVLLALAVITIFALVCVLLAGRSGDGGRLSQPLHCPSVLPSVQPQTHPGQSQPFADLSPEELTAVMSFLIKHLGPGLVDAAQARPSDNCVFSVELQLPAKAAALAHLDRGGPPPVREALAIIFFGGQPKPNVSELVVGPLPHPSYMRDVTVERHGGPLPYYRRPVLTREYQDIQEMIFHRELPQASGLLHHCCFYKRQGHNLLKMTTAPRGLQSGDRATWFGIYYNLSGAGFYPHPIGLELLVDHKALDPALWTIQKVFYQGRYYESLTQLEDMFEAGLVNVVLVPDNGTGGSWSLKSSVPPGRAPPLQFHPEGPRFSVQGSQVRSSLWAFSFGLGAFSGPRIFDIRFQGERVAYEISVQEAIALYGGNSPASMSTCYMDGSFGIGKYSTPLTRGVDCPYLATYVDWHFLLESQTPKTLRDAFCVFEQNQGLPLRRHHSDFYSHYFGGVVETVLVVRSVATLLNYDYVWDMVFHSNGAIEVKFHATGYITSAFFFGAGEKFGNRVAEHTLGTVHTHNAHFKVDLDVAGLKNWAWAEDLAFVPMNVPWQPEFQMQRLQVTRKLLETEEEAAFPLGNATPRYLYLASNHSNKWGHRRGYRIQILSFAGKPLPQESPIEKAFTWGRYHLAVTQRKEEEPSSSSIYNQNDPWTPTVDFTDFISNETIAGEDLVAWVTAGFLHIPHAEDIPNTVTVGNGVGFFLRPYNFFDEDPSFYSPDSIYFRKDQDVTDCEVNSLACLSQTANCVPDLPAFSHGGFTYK
The experiment in a line: In vitro inhibition of SSAO activity, rat lung homogenate, 14C-benzylamine. Format: biochemical. As to the method: SSAO activity was measured as described (Lizcano J M. Et al. (1998) Biochem J. 331:69). Briefly, rat lung or human umbilical cord homogenates were prepared by chopping the freshly removed tissue into small pieces and washing them thoroughly in PBS. The tissue was then homogenized 1:10 (w/v) for lung or 1:5 (w/v) for umbilical cord, in 10 mM potassium phosphate buffer (pH 7.8). Homogenates were then centrifuged at 1000 g at 4° C. for 10 min (lung) or 25,000 g for 30 min (umbilical cord); the supernatants were kept frozen until ready to use. Lung or umbilical cord homogenate was preincubated with clorgyline and pargyline at 1 μM to inhibit MAO-A and -B activity, respectively, and SSAO inhibitors were generally present at 1 nM-10 μM. The reaction was initiated by addition of 20 μM ^14C— benzylamine as substrate. The reaction was carried out at 37° C. in a final volume of 400 μL of 100 mM potassium phosphate buffer (pH 7.2) and stopped with 100 μl of 2M citric acid. Radioactively labeled products were extracted into toluene/ethyl acetate (1:1, v/v) containing 0.6% (w/v) 2,5-diphenyloxazole (PPO) before liquid scintillation counting.

In a further assay the target is T2, AT1 (h) (Homo sapiens, UniProt P30556).
T2 construct: expressed in transfected cells; host or cells: CHO cells
The experiment in a line: Receptor binding screen, [^125I][Sar^1,Ile^8]-ATII. Conditions: 10 uM Concentration of Compound I-1-Z; read-out: Mean Value, percent inhibition of control specific binding: AT1 (h).

In a further assay the test system is BB (non-selective). The experiment in a line: Receptor binding screen, [^125I][Tyr^4]bombesin. More on the design: species or system rat. Conditions: 10 uM Concentration of Compound I-1-Z. The method, then:
For Table 4 below, the specific ligand binding to the receptors is defined as the difference between the total binding and the nonspecific binding determined in the presence of an excess of unlabelled ligand. The results are expressed as a percent inhibition of control specific binding obtained in the presence of Compound I-1-Z. The IC50 values (concentration causing a half-maximal inhibition of control specific binding) and Hill coefficients (nH) were determined by non-linear regression analysis of the competition curves using Hill equation curve fitting. The inhibition constants (Ki) were calculated from the Cheng Prusoff equation (Ki=IC50/(1+(L/KD)), where L=concentration of radioligand in the assay, and KD=affinity of the radioligand for the receptor). In each experiment, the respective reference compound was tested concurrently with Compound I-1-Z in order to assess the assay suitability.

The next assay deals with T3, ETA (h) (Homo sapiens, UniProt P25101).
T3 construct: expressed in transfected cells; host or cells: CHO cells
The experiment in a line: Receptor binding screen, [^125I]endothelin-1. To be noted: 10 uM Concentration of Compound I-1-Z; read-out: Mean Value, percent inhibition of control specific binding: ETA (h).

For a further assay, the target named is T4, M2 (h) (Homo sapiens, UniProt P08172).
T4 construct: expressed in transfected cells; host or cells: CHO cells
The experiment in a line: Receptor binding screen, [^3H]AF-DX 384. Conditions: 10 uM Concentration of Compound I-1-Z; read-out: Mean Value, percent inhibition of control specific binding: M2 (h).

Another assay addresses T5, Y1 (h) (Homo sapiens, UniProt P25929).
T5 construct: SK-N-MC cells; endogenous in cells; host or cells: SK-N-MC cells
The experiment in a line: Receptor binding screen, [^125I]peptide YY, SK-N-MC cells. Conditions: 10 uM Concentration of Compound I-1-Z; read-out: Mean Value, percent inhibition of control specific binding: Y1 (h).

The target in the next assay is T6, Y2 (h) (Homo sapiens, UniProt P49146).
T6 construct: KAN-TS cells; endogenous in cells; host or cells: KAN-TS cells
The experiment in a line: Receptor binding screen, [^125I]peptide YY, KAN-TS cells. Conditions: 10 uM Concentration of Compound I-1-Z; read-out: Mean Value, percent inhibition of control specific binding: Y2 (h).

Another assay concerns the target T7, PACAP (PAC1) (h) (Homo sapiens, UniProt P41586).
T7 construct: expressed in transfected cells; host or cells: CHO cells
The experiment in a line: Receptor binding screen, [^125I]PACAP1-27. Conditions: 10 uM Concentration of Compound I-1-Z; read-out: Mean Value, percent inhibition of control specific binding: PACAP (PAC1) (h).

For another assay, the target named is T8, TXA2/PGH2 (h) (TP) (Homo sapiens, UniProt P21731).
T8 construct: human platelets; endogenous in cells; host or cells: human platelets
The experiment in a line: Receptor binding screen, [^3H]SQ 29548, human platelets. Conditions: 10 uM Concentration of Compound I-1-Z; read-out: Mean Value, percent inhibition of control specific binding: TXA2/PGH2 (h) (TP).

The target of the next assay is T9, 5-HT2A (h) (Homo sapiens, UniProt P28223).
T9 construct: expressed in transfected cells; host or cells: HEK-293 cells
The experiment in a line: Receptor binding screen, [^3H]ketanserin. Conditions: 10 uM Concentration of Compound I-1-Z; read-out: Mean Value, percent inhibition of control specific binding: 5-HT2A (h).

For a further assay, the system named is K^+V channel. The experiment in a line: Receptor binding screen, [^125I]α-dendrotoxin. To be noted: 10 uM Concentration of Compound I-1-Z. More on the design: species or system rat.
The next assay relates to Cl^− channel. The experiment in a line: Receptor binding screen, [^35S]TBPS. More on the design: species or system rat. To be noted: 10 uM Concentration of Compound I-1-Z.

T4 sequence (P08172 whole entry): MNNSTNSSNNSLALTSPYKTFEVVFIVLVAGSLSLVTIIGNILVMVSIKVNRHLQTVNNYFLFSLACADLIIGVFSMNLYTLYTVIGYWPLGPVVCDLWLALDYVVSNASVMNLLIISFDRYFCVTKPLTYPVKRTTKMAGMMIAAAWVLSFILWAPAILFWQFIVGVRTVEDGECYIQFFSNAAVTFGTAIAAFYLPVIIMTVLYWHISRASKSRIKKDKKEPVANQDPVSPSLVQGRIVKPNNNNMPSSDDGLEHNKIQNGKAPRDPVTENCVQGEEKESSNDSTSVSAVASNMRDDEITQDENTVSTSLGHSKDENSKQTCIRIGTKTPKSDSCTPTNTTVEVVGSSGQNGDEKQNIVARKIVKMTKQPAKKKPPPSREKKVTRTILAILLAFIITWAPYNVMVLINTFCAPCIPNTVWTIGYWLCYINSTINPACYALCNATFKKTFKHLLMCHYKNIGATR
T9 sequence (P28223 whole entry): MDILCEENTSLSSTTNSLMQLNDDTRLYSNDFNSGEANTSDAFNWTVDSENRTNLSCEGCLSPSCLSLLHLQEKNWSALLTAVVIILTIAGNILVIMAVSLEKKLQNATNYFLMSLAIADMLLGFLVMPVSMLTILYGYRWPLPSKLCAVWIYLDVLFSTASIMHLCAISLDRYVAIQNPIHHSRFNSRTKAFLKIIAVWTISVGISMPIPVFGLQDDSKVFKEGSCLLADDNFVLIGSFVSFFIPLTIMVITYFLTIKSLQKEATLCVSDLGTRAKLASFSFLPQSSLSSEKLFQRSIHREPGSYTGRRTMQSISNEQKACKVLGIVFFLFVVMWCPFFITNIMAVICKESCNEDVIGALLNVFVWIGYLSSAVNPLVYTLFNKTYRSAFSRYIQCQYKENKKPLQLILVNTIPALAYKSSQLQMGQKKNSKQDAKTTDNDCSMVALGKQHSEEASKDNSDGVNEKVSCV
T3 sequence (P25101 21-427): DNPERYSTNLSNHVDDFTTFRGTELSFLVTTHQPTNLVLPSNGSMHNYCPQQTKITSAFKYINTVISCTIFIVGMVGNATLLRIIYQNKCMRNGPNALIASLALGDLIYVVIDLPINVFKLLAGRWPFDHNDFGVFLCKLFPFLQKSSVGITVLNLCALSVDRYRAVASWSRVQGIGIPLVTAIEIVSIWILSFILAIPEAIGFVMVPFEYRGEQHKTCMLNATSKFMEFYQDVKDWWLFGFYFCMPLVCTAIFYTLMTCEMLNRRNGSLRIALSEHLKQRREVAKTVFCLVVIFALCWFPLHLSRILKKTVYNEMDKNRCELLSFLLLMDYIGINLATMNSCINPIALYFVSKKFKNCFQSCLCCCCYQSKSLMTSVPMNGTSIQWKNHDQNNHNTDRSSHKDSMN
T2 sequence (P30556 whole entry): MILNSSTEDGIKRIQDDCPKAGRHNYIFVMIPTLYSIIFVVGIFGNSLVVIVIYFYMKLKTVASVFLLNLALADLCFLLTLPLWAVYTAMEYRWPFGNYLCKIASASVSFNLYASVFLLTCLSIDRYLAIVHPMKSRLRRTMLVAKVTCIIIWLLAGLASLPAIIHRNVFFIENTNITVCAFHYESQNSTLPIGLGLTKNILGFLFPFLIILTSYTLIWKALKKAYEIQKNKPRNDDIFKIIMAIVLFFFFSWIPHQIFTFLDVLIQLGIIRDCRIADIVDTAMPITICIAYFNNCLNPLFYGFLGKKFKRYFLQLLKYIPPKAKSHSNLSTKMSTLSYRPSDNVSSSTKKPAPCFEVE
T7 sequence (P41586 21-468): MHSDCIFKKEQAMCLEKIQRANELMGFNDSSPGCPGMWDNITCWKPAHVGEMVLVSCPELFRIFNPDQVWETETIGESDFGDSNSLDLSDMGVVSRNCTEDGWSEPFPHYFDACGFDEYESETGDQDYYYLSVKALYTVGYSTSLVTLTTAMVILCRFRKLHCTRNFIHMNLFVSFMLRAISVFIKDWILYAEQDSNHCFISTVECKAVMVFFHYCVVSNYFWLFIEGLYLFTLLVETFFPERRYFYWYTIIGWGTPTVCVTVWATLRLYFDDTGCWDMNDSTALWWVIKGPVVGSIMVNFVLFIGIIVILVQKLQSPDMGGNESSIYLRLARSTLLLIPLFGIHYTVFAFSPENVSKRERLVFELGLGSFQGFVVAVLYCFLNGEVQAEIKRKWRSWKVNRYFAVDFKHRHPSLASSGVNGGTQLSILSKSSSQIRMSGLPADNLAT
T5 sequence (P25929 whole entry): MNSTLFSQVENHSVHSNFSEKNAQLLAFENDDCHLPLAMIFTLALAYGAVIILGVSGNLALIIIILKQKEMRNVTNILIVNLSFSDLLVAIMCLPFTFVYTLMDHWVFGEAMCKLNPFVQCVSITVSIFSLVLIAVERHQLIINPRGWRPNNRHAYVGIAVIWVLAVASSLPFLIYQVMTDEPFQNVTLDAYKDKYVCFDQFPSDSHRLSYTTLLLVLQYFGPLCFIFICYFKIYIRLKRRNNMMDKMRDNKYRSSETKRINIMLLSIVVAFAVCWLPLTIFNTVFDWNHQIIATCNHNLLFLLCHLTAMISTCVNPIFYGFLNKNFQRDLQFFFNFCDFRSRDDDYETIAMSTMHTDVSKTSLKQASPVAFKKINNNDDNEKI
T6 sequence (P49146 whole entry): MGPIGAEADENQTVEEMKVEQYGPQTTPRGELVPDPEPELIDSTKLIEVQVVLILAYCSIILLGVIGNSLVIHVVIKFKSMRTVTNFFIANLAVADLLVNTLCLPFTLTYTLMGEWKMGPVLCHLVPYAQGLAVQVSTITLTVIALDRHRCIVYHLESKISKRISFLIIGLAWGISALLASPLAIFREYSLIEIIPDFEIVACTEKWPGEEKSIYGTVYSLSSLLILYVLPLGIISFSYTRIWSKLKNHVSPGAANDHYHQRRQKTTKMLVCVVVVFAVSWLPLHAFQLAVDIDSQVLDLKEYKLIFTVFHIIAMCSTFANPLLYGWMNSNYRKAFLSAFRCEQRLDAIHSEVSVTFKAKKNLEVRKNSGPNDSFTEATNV
T8 sequence (P21731 whole entry): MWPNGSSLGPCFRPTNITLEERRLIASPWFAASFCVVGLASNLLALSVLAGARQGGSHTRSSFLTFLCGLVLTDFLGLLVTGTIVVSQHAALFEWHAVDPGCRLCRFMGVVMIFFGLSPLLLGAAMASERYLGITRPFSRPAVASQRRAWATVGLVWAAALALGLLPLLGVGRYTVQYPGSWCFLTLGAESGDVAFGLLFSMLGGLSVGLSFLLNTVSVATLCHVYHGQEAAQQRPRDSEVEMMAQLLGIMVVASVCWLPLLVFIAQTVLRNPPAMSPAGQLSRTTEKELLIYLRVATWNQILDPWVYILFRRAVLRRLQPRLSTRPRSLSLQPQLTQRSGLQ

At Rat SSAO, `COc1ccc(C/C(=C/F)CN)cc1.Cl` [Compound I-1-Z, (Z)-3-Fluoro-2-(4-methoxybenzyl)-allylamine hydrochloride] gave a pIC50 of 7.89. Besides, the inhibition at 10 µM was 10% on AT1 (h); 8% at ETA (h); 3% at M2 (h); -2% on Y1 (h); 11% on Y2 (h); 5% on PACAP (PAC1) (h). In addition, the values for the inhibition at 10 µM on TXA2/PGH2 (h) (TP) and at 5-HT2A (h) were 4% and -4%, respectively. The “Mean Value, percent inhibition of control specific binding: BB (non-selective)” value with BB (non-selective) is listed as 21%. For the same molecule, the “Mean Value, percent inhibition of control specific binding: K^+V channel” value in the assay with K^+V channel is listed as −5%. The “Mean Value, percent inhibition of control specific binding: Cl^− channel” value with Cl^− channel is recorded as −6%.

With `CCOc1ccc(C/C(=C\F)CN)cc1.Cl` [Compound I-2-E, (E)-3-Fluoro-2-(4-ethoxybenzyl)-allylamine hydrochloride], the pIC50 against Rat SSAO was 8.10.

In turn, `CCOc1ccc(C/C(=C/F)CN)cc1.Cl` [Compound I-2-Z, (Z)-3-Fluoro-2-(4-ethoxybenzyl)-allylamine hydrochloride] had a pIC50 at Rat SSAO of 8.30.

With `NC/C(F)=C\Cc1cc(F)cc(C(F)(F)F)c1` [II-1-E, (E)-2-Fluoro-4-(3-fluoro-5-trifluoromethylphenyl)-but-2-enylamine], at Rat SSAO, the pIC50 was 7.42.
